Values quoted from earlier work in patent US8211015B2 (priority 2006, dated 2012).

Conditions: in vivo

Row | SMILES | analgesic effect on labor pain
1 | CCOC(=O)C1(c2ccccc2)CCN(C)CC1 [meperidine] | more sedation than actual analgesia
2 | CN1CC[C@]23c4c5ccc(O)c4O[C@H]2[C@@H](O)C=C[C@H]3[C@H]1C5 [morphine] | more sedation than actual analgesia
